Where “and” joins values, the source holds several entries; their conditions need not be identical. Equal values may be shown once. Toxic doses and inconclusive results are not listed.
System: BDF1 mice, P388 leukemia ip, median survival T/C
Assay: NCI In Vivo Anticancer Drug Screen. Data for tumor model P388 Leukemia (intraperitoneal) in B6D2F1 (BDF1) mice
Settings: endpoint: median survival time, higher = longer survival
Summary of the method: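 Steps: implant the tumour, treat one group with compound and another with vehicle, record survival, then divide treated by control.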

[1] = dose: 100.0 mg/kg/injection, schedule: Q01DX009 (ip), vehicle: saline with Tween-80
[2] = dose: 25.0 mg/kg/injection, schedule: Q01DX009 (ip), vehicle: Klucel (hydroxypropylcellulose) (HPC)
[3] = dose: 50.0 mg/kg/injection, schedule: Q01DX009 (ip), vehicle: Klucel (hydroxypropylcellulose) (HPC)
[4] = dose: 100.0 mg/kg/injection, schedule: Q04DX003 (ip), vehicle: Klucel (hydroxypropylcellulose) (HPC)
[5] = dose: 200.0 mg/kg/injection, schedule: Q04DX003 (ip), vehicle: Klucel (hydroxypropylcellulose) (HPC)
[6] = dose: 200.0 mg/kg/injection, schedule: Q01DX009 (ip), vehicle: saline with Tween-80

## CSCC(C(N)=O)c1cc(Cl)ccc1Cl (stereo not given)
dose: 25.0 mg/kg/injection, schedule: Q01DX009 (ip), vehicle: water
  T/C: 97 % of control
dose: 50.0 mg/kg/injection, schedule: Q01DX009 (ip), vehicle: water
  T/C: 103 % of control
[1]
  T/C: 100 % of control
dose: 100.0 mg/kg/injection, schedule: Q01DX009 (ip), vehicle: water
  T/C: 101 % of control
dose: 100.0 mg/kg/injection, schedule: Q04DX003 (ip), vehicle: water
  T/C: 95 % of control
dose: 200.0 mg/kg/injection, schedule: Q04DX003 (ip), vehicle: water
  T/C: 100 % of control
dose: 400.0 mg/kg/injection, schedule: Q04DX003 (ip), vehicle: water
  T/C: 100 % of control

## CS(=O)(=O)Nc1cc(Cl)c(NS(C)(=O)=O)c(Cl)c1Cl
dose: 100.0 mg/kg/injection, schedule: Q01DX001 (ip), vehicle: saline with Tween-80
  T/C: 100 % of control
dose: 200.0 mg/kg/injection, schedule: Q01DX001 (ip), vehicle: saline with Tween-80
  T/C: 103 % of control
dose: 400.0 mg/kg/injection, schedule: Q01DX001 (ip), vehicle: saline with Tween-80
  T/C: 100 % of control

## C=CCCCCCCCCCCCCCC
dose: 145.0 mg/kg/injection, schedule: Q01DX010 (ip), vehicle: saline
  T/C: 104 % of control
dose: 220.0 mg/kg/injection, schedule: Q01DX010 (ip), vehicle: saline
  T/C: 113 % of control
dose: 330.0 mg/kg/injection, schedule: Q01DX010 (ip), vehicle: saline
  T/C: 104 % of control
dose: 500.0 mg/kg/injection, schedule: Q01DX010 (ip), vehicle: saline
  T/C: 118 % of control

## CCN(CC)CCNc1ccc(N=Nc2ccc(SC)cc2)c2ccccc12
[2]
  T/C: 105 % of control
[3]
  T/C: 100 % of control
dose: 50.0 mg/kg/injection, schedule: Q04DX003 (ip), vehicle: Klucel (hydroxypropylcellulose) (HPC)
  T/C: 100 % of control
dose: 100.0 mg/kg/injection, schedule: Q01DX009 (ip), vehicle: Klucel (hydroxypropylcellulose) (HPC)
  T/C: 105 % of control
[4]
  T/C: 104 % of control
[5]
  T/C: 90 % of control

## C/C(=N\NC(=S)N(C)C)c1ccccn1
dose: 1.56 mg/kg/injection, schedule: Q01DX009 (ip), vehicle: saline with Tween-80
  T/C: 105 % of control
dose: 3.12 mg/kg/injection, schedule: Q01DX009 (ip), vehicle: saline with Tween-80
  T/C: 100 % of control

## O=C1OC(c2ccccc2)(c2ccccc2)Cc2ccccc21
[1]
  T/C: 105 % of control
[6]
  T/C: 105 % of control
dose: 400.0 mg/kg/injection, schedule: Q01DX009 (ip), vehicle: saline with Tween-80
  T/C: 100 % of control

## COC(=O)c1c(OC)ccc2c1CC1C3Nc4ccccc4C3CCN1C2 (stereo not given)
dose: 50.0 mg/kg/injection, schedule: Q04DX003 (ip), vehicle: saline sonified
  T/C: 100 % of control
dose: 100.0 mg/kg/injection, schedule: Q04DX003 (ip), vehicle: saline sonified
  T/C: 100 % of control
dose: 200.0 mg/kg/injection, schedule: Q04DX003 (ip), vehicle: saline sonified
  T/C: 100 % of control

## C=C(C)[C@H]1Cc2c(ccc3c2O[C@@H]2COc4cc(OC)c(OC)cc4[C@@H]2C3=O)O1
dose: 4.0 mg/kg/injection, schedule: Q01DX010 (ip), vehicle: saline
  T/C: 109 % of control
dose: 10.0 mg/kg/injection, schedule: Q01DX009 (ip), vehicle: saline
  T/C: 95 % of control
dose: 20.0 mg/kg/injection, schedule: Q01DX009 (ip), vehicle: saline
  T/C: 155 % of control
dose: 40.0 mg/kg/injection, schedule: Q01DX009 (ip), vehicle: saline
  T/C: 120 % of control

## O=C1CN(CN2CCCCC2)C(=O)CN1CN1CCCCC1
dose: 12.5 mg/kg/injection, schedule: Q01DX009 (ip), vehicle: Klucel (hydroxypropylcellulose) (HPC)
  T/C: 115 % of control
[2]
  T/C: 117 % of control
[3]
  T/C: 92 % of control and 100 % of control
[4]
  T/C: 120 % of control
[5]
  T/C: 108 % of control

## CCc1nn2c(=O)nc(Oc3ccccc3)nc2s1
dose: 50.0 mg/kg/injection, schedule: Q01DX009 (ip), vehicle: saline with Tween-80
  T/C: 101 % of control
[1]
  T/C: 106 % of control
[6]
  T/C: 98 % of control

## CC1=CC(=O)OC2(C1)CC1CCC2CN1C (stereo not given)
dose: 12.5 mg/kg/injection, schedule: Q01DX009 (ip), vehicle: saline
  T/C: 110 % of control
dose: 25.0 mg/kg/injection, schedule: Q01DX009 (ip), vehicle: saline
  T/C: 100 % of control
dose: 25.0 mg/kg/injection, schedule: Q04DX003 (ip), vehicle: saline
  T/C: 100 % of control
dose: 50.0 mg/kg/injection, schedule: Q01DX009 (ip), vehicle: saline
  T/C: 100 % of control
dose: 50.0 mg/kg/injection, schedule: Q04DX003 (ip), vehicle: saline
  T/C: 104 % of control

Reference: PubChem BioAssay AID328 (DTP/NCI, 2004)
